# In the supplement of paper PMC4862054:
# System: BT-474
# Test: normalised response (% of control), CellTiter-Glo; higher = more viable cells (100 = DMSO, 0 = benzethonium chloride kill control)
# Conditions: incubation time: 72 h
# Procedure, shortened: (§1)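 Breast cancer cell lines in 20 µl suspension were added to 384-well plates containing compound at 5 concentrations, spaced in 10-fold steps across a 10,000-fold range chosen for each compound, and incubated for 72 h. CellTox Green fluorescence was read at 485/520 nm, followed by CellTiter-Glo luminescence after 10 min at room temperature. Signals on each plate were normalised so that 0.1 % DMSO equals 100 and a positive kill control equals 0. Every value in the table is the normalised signal at one concentration of the series.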
row,Structure (SMILES),normalised response [%]
1,Cc1ccc(NC(=O)c2ccc(CN3CCN(C)CC3)cc2)cc1Nc1nc(-c2cccnc2)cs1 [Masitinib] (1 nM),96.4
2,O=C(Nc1cccnc1)N1CCC(Cc2cccc(Oc3ccc(C(F)(F)F)cn3)c2)CC1 [PF-3845] (1 nM),98.6
3,Cc1[nH]c2ccccc2c1CCNCc1ccc(/C=C/C(=O)NO)cc1 [Panobinostat] (0.1 nM),101
4,COCC1(CO)C(=O)C2CCN1CC2 (centres undefined) [Prima-1 Met] (1 nM),102

# System: HCC1143
# Test: as above
# Conditions: incubation time: 72 h
# Procedure, shortened: as §1
row,Structure (SMILES),normalised response [%]
1,C=C1C[C@@H]2[C@H](CC[C@]3(C)C(=O)CC[C@@H]23)[C@@]2(C)C=CC(=O)C=C12 [Exemestane] (1 nM),102
2,O=C(Nc1ccncc1)C(=O)c1cn(Cc2ccc(Cl)cc2)c2ccccc12 [Indibulin] (1 nM),97.2
3,NC(=O)c1ccc(I)c([N+](=O)[O-])c1 [Iniparib] (1 nM),87.8
4,Oc1ccc2c(c1)CC[C@H](c1ccccc1)[C@@H]2c1ccc(OCCN2CCCC2)cc1 [Lasofoxifene] (0.1 nM),104
5,Cc1ccc(NC(=O)c2ccc(CN3CCN(C)CC3)cc2)cc1Nc1nc(-c2cccnc2)cs1 [Masitinib] (1 nM),100
6,O=C(Nc1cccnc1)N1CCC(Cc2cccc(Oc3ccc(C(F)(F)F)cn3)c2)CC1 [PF-3845] (1 nM),108
7,Cc1[nH]c2ccccc2c1CCNCc1ccc(/C=C/C(=O)NO)cc1 [Panobinostat] (0.1 nM),100
8,COCC1(CO)C(=O)C2CCN1CC2 (centres undefined) [Prima-1 Met] (1 nM),98.8

# System: CAL-120
# Test: as above
# Conditions: incubation time: 72 h
# Procedure, shortened: as §1
row,Structure (SMILES),normalised response [%]
1,C=C1C[C@@H]2[C@H](CC[C@]3(C)C(=O)CC[C@@H]23)[C@@]2(C)C=CC(=O)C=C12 [Exemestane] (1 nM),101
2,O=C(Nc1ccncc1)C(=O)c1cn(Cc2ccc(Cl)cc2)c2ccccc12 [Indibulin] (1 nM),99.1
3,NC(=O)c1ccc(I)c([N+](=O)[O-])c1 [Iniparib] (1 nM),96.5
4,Oc1ccc2c(c1)CC[C@H](c1ccccc1)[C@@H]2c1ccc(OCCN2CCCC2)cc1 [Lasofoxifene] (0.1 nM),107
5,Cc1ccc(NC(=O)c2ccc(CN3CCN(C)CC3)cc2)cc1Nc1nc(-c2cccnc2)cs1 [Masitinib] (1 nM),95.8
6,O=C(Nc1cccnc1)N1CCC(Cc2cccc(Oc3ccc(C(F)(F)F)cn3)c2)CC1 [PF-3845] (1 nM),107
7,Cc1[nH]c2ccccc2c1CCNCc1ccc(/C=C/C(=O)NO)cc1 [Panobinostat] (0.1 nM),107
8,COCC1(CO)C(=O)C2CCN1CC2 (centres undefined) [Prima-1 Met] (1 nM),97.1

# System: CAL-148
# Test: as above
# Conditions: incubation time: 72 h
# Procedure, shortened: as §1
row,Structure (SMILES),normalised response [%]
1,C=C1C[C@@H]2[C@H](CC[C@]3(C)C(=O)CC[C@@H]23)[C@@]2(C)C=CC(=O)C=C12 [Exemestane] (1 nM),98.6
2,O=C(Nc1ccncc1)C(=O)c1cn(Cc2ccc(Cl)cc2)c2ccccc12 [Indibulin] (1 nM),109
3,NC(=O)c1ccc(I)c([N+](=O)[O-])c1 [Iniparib] (1 nM),83.8
4,Oc1ccc2c(c1)CC[C@H](c1ccccc1)[C@@H]2c1ccc(OCCN2CCCC2)cc1 [Lasofoxifene] (0.1 nM),109
5,Cc1ccc(NC(=O)c2ccc(CN3CCN(C)CC3)cc2)cc1Nc1nc(-c2cccnc2)cs1 [Masitinib] (1 nM),101
6,O=C(Nc1cccnc1)N1CCC(Cc2cccc(Oc3ccc(C(F)(F)F)cn3)c2)CC1 [PF-3845] (1 nM),114
7,Cc1[nH]c2ccccc2c1CCNCc1ccc(/C=C/C(=O)NO)cc1 [Panobinostat] (0.1 nM),105
8,COCC1(CO)C(=O)C2CCN1CC2 (centres undefined) [Prima-1 Met] (1 nM),107

# System: BT-549
# Test: as above
# Conditions: incubation time: 72 h
# Procedure, shortened: as §1
row,Structure (SMILES),normalised response [%]
1,C=C1C[C@@H]2[C@H](CC[C@]3(C)C(=O)CC[C@@H]23)[C@@]2(C)C=CC(=O)C=C12 [Exemestane] (1 nM),91.6
2,O=C(Nc1ccncc1)C(=O)c1cn(Cc2ccc(Cl)cc2)c2ccccc12 [Indibulin] (1 nM),104
3,NC(=O)c1ccc(I)c([N+](=O)[O-])c1 [Iniparib] (1 nM),108
4,Oc1ccc2c(c1)CC[C@H](c1ccccc1)[C@@H]2c1ccc(OCCN2CCCC2)cc1 [Lasofoxifene] (0.1 nM),97.1
5,Cc1ccc(NC(=O)c2ccc(CN3CCN(C)CC3)cc2)cc1Nc1nc(-c2cccnc2)cs1 [Masitinib] (1 nM),103
6,O=C(Nc1cccnc1)N1CCC(Cc2cccc(Oc3ccc(C(F)(F)F)cn3)c2)CC1 [PF-3845] (1 nM),107
7,Cc1[nH]c2ccccc2c1CCNCc1ccc(/C=C/C(=O)NO)cc1 [Panobinostat] (0.1 nM),99.5
8,COCC1(CO)C(=O)C2CCN1CC2 (centres undefined) [Prima-1 Met] (1 nM),104

# System: HCC1937
# Test: as above
# Conditions: incubation time: 72 h
# Procedure, shortened: as §1
row,Structure (SMILES),normalised response [%]
1,C=C1C[C@@H]2[C@H](CC[C@]3(C)C(=O)CC[C@@H]23)[C@@]2(C)C=CC(=O)C=C12 [Exemestane] (1 nM),93.6
2,O=C(Nc1ccncc1)C(=O)c1cn(Cc2ccc(Cl)cc2)c2ccccc12 [Indibulin] (1 nM),100
3,NC(=O)c1ccc(I)c([N+](=O)[O-])c1 [Iniparib] (1 nM),93.5
4,Oc1ccc2c(c1)CC[C@H](c1ccccc1)[C@@H]2c1ccc(OCCN2CCCC2)cc1 [Lasofoxifene] (0.1 nM),100
5,Cc1ccc(NC(=O)c2ccc(CN3CCN(C)CC3)cc2)cc1Nc1nc(-c2cccnc2)cs1 [Masitinib] (1 nM),105
6,O=C(Nc1cccnc1)N1CCC(Cc2cccc(Oc3ccc(C(F)(F)F)cn3)c2)CC1 [PF-3845] (1 nM),98.4
7,Cc1[nH]c2ccccc2c1CCNCc1ccc(/C=C/C(=O)NO)cc1 [Panobinostat] (0.1 nM),94.7
8,COCC1(CO)C(=O)C2CCN1CC2 (centres undefined) [Prima-1 Met] (1 nM),95.5

# System: MFM-223
# Test: as above
# Conditions: incubation time: 72 h
# Procedure, shortened: as §1
row,Structure (SMILES),normalised response [%]
1,C=C1C[C@@H]2[C@H](CC[C@]3(C)C(=O)CC[C@@H]23)[C@@]2(C)C=CC(=O)C=C12 [Exemestane] (1 nM),108
2,O=C(Nc1ccncc1)C(=O)c1cn(Cc2ccc(Cl)cc2)c2ccccc12 [Indibulin] (1 nM),107
3,NC(=O)c1ccc(I)c([N+](=O)[O-])c1 [Iniparib] (1 nM),84.2
4,Oc1ccc2c(c1)CC[C@H](c1ccccc1)[C@@H]2c1ccc(OCCN2CCCC2)cc1 [Lasofoxifene] (0.1 nM),103
5,Cc1ccc(NC(=O)c2ccc(CN3CCN(C)CC3)cc2)cc1Nc1nc(-c2cccnc2)cs1 [Masitinib] (1 nM),102
6,O=C(Nc1cccnc1)N1CCC(Cc2cccc(Oc3ccc(C(F)(F)F)cn3)c2)CC1 [PF-3845] (1 nM),110
7,Cc1[nH]c2ccccc2c1CCNCc1ccc(/C=C/C(=O)NO)cc1 [Panobinostat] (0.1 nM),99.5
8,COCC1(CO)C(=O)C2CCN1CC2 (centres undefined) [Prima-1 Met] (1 nM),104

# System: CAL-51
# Test: as above
# Conditions: incubation time: 72 h
# Procedure, shortened: as §1
row,Structure (SMILES),normalised response [%]
1,C=C1C[C@@H]2[C@H](CC[C@]3(C)C(=O)CC[C@@H]23)[C@@]2(C)C=CC(=O)C=C12 [Exemestane] (1 nM),88.6
2,O=C(Nc1ccncc1)C(=O)c1cn(Cc2ccc(Cl)cc2)c2ccccc12 [Indibulin] (1 nM),59.7
3,NC(=O)c1ccc(I)c([N+](=O)[O-])c1 [Iniparib] (1 nM),128
4,Oc1ccc2c(c1)CC[C@H](c1ccccc1)[C@@H]2c1ccc(OCCN2CCCC2)cc1 [Lasofoxifene] (0.1 nM),86.3
5,Cc1ccc(NC(=O)c2ccc(CN3CCN(C)CC3)cc2)cc1Nc1nc(-c2cccnc2)cs1 [Masitinib] (1 nM),98.9
6,O=C(Nc1cccnc1)N1CCC(Cc2cccc(Oc3ccc(C(F)(F)F)cn3)c2)CC1 [PF-3845] (1 nM),89.8
7,Cc1[nH]c2ccccc2c1CCNCc1ccc(/C=C/C(=O)NO)cc1 [Panobinostat] (0.1 nM),130
8,COCC1(CO)C(=O)C2CCN1CC2 (centres undefined) [Prima-1 Met] (1 nM),81.5

# System: SK-BR-3
# Test: as above
# Conditions: incubation time: 72 h
# Procedure, shortened: as §1
row,Structure (SMILES),normalised response [%]
1,C=C1C[C@@H]2[C@H](CC[C@]3(C)C(=O)CC[C@@H]23)[C@@]2(C)C=CC(=O)C=C12 [Exemestane] (1 nM),107
2,O=C(Nc1ccncc1)C(=O)c1cn(Cc2ccc(Cl)cc2)c2ccccc12 [Indibulin] (1 nM),110
3,NC(=O)c1ccc(I)c([N+](=O)[O-])c1 [Iniparib] (1 nM),76.7
4,Oc1ccc2c(c1)CC[C@H](c1ccccc1)[C@@H]2c1ccc(OCCN2CCCC2)cc1 [Lasofoxifene] (0.1 nM),113
5,Cc1ccc(NC(=O)c2ccc(CN3CCN(C)CC3)cc2)cc1Nc1nc(-c2cccnc2)cs1 [Masitinib] (1 nM),104
6,O=C(Nc1cccnc1)N1CCC(Cc2cccc(Oc3ccc(C(F)(F)F)cn3)c2)CC1 [PF-3845] (1 nM),113
7,Cc1[nH]c2ccccc2c1CCNCc1ccc(/C=C/C(=O)NO)cc1 [Panobinostat] (0.1 nM),95.9
8,COCC1(CO)C(=O)C2CCN1CC2 (centres undefined) [Prima-1 Met] (1 nM),109

# System: MCF-10A
# Test: as above
# Conditions: incubation time: 72 h
# Procedure, shortened: as §1
row,Structure (SMILES),normalised response [%]
1,C=C1C[C@@H]2[C@H](CC[C@]3(C)C(=O)CC[C@@H]23)[C@@]2(C)C=CC(=O)C=C12 [Exemestane] (1 nM),112
2,O=C(Nc1ccncc1)C(=O)c1cn(Cc2ccc(Cl)cc2)c2ccccc12 [Indibulin] (1 nM),101
3,NC(=O)c1ccc(I)c([N+](=O)[O-])c1 [Iniparib] (1 nM),77.3
4,Oc1ccc2c(c1)CC[C@H](c1ccccc1)[C@@H]2c1ccc(OCCN2CCCC2)cc1 [Lasofoxifene] (0.1 nM),109
5,Cc1ccc(NC(=O)c2ccc(CN3CCN(C)CC3)cc2)cc1Nc1nc(-c2cccnc2)cs1 [Masitinib] (1 nM),96.6
6,O=C(Nc1cccnc1)N1CCC(Cc2cccc(Oc3ccc(C(F)(F)F)cn3)c2)CC1 [PF-3845] (1 nM),113
